Data from article PMC3413433, “A novel cytarabine crystalline lipid prodrug: Hexadecyloxypropyl cytarabine 3′,5′-cyclic monophosphate for proliferative vitreoretinopathy” (Molecular Vision, 2012).
Where “and” joins values, the source holds several entries; their conditions need not be identical. Equal values may be shown once. Entries after “also recorded” stand apart in the source; their conditions may differ. Marks after values point to notes of the source that are not given here.

Tests used:
rMC-1 cells = experiment: Cell proliferation assay (rMC-1/XTT); type: cell-based; settings: Rattus norvegicus, 120 h, 5 days, XTT, read-out: 50% cytotoxicity concentration (CC50)
Method: (§1) Human retinal pigment epithelium (ARPE-19) cells were obtained from the American Type Culture Collection (ATCC; Manassas, VA). A rat Müller cell line, rMC-1, was provided by Dr. Gabe Silva at UC San Diego (originally obtained from Dr. Vijay Sarthy, Northwestern University, Chicago, IL). ARPE-19 cells were cultured in Dulbecco’s modified Eagle medium (DMEM)/F12 and rMC-1 in DMEM. DMEM/F12 medium and DMEM were maintained at 37 °C in a humidified chamber of 5% CO2. All culture media were supplemented with 10% fetal bovine serum, 100 U/ml penicillin, and 100 µg/ml streptomycin. The cell lines were chosen due to their dominant presence in the pathology of proliferative vitreoretinopathy.
rMC-1 cells were plated in 96-well plates at […] per well. Serial dilutions of the compounds were added to the wells in a total volume of 100 µl. The plates were maintained in a 37 °C incubator. After 5 days, 50 µl of a solution of XTT (Roche Molecular Biochemicals, Indianapolis, IN) was added to each well, and the plates returned to the incubator for 30 min, after which the […] (OD) of each well was measured at a wavelength of 450 nanometers. Percent inhibition was determined by comparing the OD of wells containing compound to the OD of control wells.

rat eyes = experiment: Toxicity study of HDP-P-Ara-C in rat eyes (intravitreal injection); type: in vivo
Method: Twelve Brown Norway rats were used to evaluate the effect of intravitreal HDP-P-Ara-C versus control injection. […] Only one eye of each rat was injected with the drug, and the fellow eye was injected with saline as control. Electroretinograms (ERGs) were obtained before drug injection and 1 day before scheduled sacrifice. Following injection, toxicity and safety were evaluated with indirect ophthalmoscopy, biomicroscopy, and fundus photography. At week 2 following drug injections, all of the rats were euthanized with intraperitoneal injection of ketamine (100 mg/kg) and xylazine (10 mg/kg) followed by intraperitoneal injection of 120 mg/kg sodium pentobarbital. Six eyes were used for pathologic evaluation and six eyes used for evaluation of vitreous drug level. Vitreous drug levels were determined at the end of the experiment using high-performance liquid chromatography (HPLC).
(§2) Intraocular pressure (IOP) measurements and ERG recordings were repeated measurement data. Therefore, generalized estimating equations were used to compare the mean IOP and ERG amplitudes between each treatment group and the control group. All analyses were performed with SAS 9.2 software (SAS Institute Inc., Cary, NC), and the difference was considered to be significant when the p value was smaller than 0.05.

ARPE-19 cells = experiment: Cell proliferation assay (ARPE-19/WST-1); type: cell-based; settings: Homo sapiens, 120 h, 5 days, WST-1, read-out: 50% cytotoxicity concentration (CC50)
Method: as §1
ARPE-19 cells were plated in 96-well plates at […] per well. Serial dilutions of the compounds were added to the wells in a total volume of 100 µl. The plates were maintained in a 37 °C incubator. After 5 days, 10 µl of a solution of WST-1 (Roche Diagnostics, Indianapolis, IN) was added to each well, and the plates returned to the incubator for 0.5 h, after which the OD450 of each well was measured. Percent inhibition data were obtained from at least three experiments with at least six wells at each concentration in separate 96-well plates. […] The results were expressed as the percentage of the optical density of treated cells relative to that of untreated controls.

[1] = Simulated intravitreal clearance kinetics (dissolution chamber); type: in vitro ADME
Method: Dissolution starting from an intravitreal drug depot was simulated using a custom chamber and a syringe pump. The drug powder (600 µg) was weighed into the chamber, which had 1.5 ml of effective circulation volume to mimic the rabbit vitreous. The chamber was filled with 1.5 ml of Hank’s Balanced Salt Solution (HBSS). The chamber was then connected by tubing to a NE-1000 syringe pump (New Era Pump Systems, Farmingdale, NY) on one end and open tubing on the other end so that the solution could be collected into a vial (Figure 1). The syringe pump was set to a flow rate of 2 µl/min [12], and the syringe filled with HBSS. The entire setup was maintained at 37 °C and pumped continuously. This dissolution chamber mimics the rabbit vitreous fluid turnover only. […] At the same time every day, the vial was changed and the contents collected and stored at −80 °C until liquid chromatography/mass spectrometry (LC/MS) was performed.
Figure 1 The dissolution chamber is made of poly methyl methacrylate. Inlet tubing connects from a syringe pump to the upper part of the chamber, and the outlet tubing leaves from the lower part of the chamber to the sample collector. In the center of the dissolution chamber, a titanium mesh circle is installed to prevent the large drug particles reaching the lower chamber to possibly clog the outgoing tubing. The mesh contains […].

rabbit eyes = experiment: Toxicity study of HDP-cP-Ara-C in rabbit eyes (intravitreal injection); type: in vivo; settings: for Dark A amp (dark adapted ERG a-wave amplitude) / Dark B amp / Flicker amp / Light A amp / Light B amp: OD, n=4, in µV (unit assumed)
Description: Sixteen New Zealand Red rabbits were used for this study. Only one eye of each animal was used for the drug testing, and the fellow eye was used as a control by injection of the diluent. […] After the intravitreal injection, the rabbits were examined at week 1, 2, 4, 8, and 12 and then once a month for 7 months. The eyes were monitored with slit-lamp exam, tonometry, indirect ophthalmoscope, and fundus camera. The drug depot size was estimated and recorded using the optic disc area and the drug depot contour in the vitreous. The number of disc areas for estimating the two dimensions of the drug depot and the contour (ball=3, patch=2, filaments and dots=1) provides an estimate of the density of the drug depot. ERGs were recorded from all animals at week 2, week 8, and immediately before the animals were euthanized by deeply anesthetizing the animals with a combined ketamine (24 mg/kg) and xylazine (6 mg/kg) intramuscular injection followed by an intravenous injection of 0.3 ml/kg B-euthanasia (Schering-Plough Animal Health, Kenilworth, NJ).
as §2

[2] = Water solubility (observation); type: physicochemical
[3] = set-up: method as in PMID 1917392; settings: unmodified nucleoside; cited from earlier work
experimental PVR = system: experimental PVR; set-up: method as in PMID 10359331; settings: intravitreal injection; cited from earlier work
herpes simplex virus = system: herpes simplex virus; set-up: method as in PMID 15505067; settings: single intravitreal injection; cited from earlier work

## CCCCCCCCCCCCCCCCOCCCOP(=O)(O)OC[C@H]1O[C@@H](n2ccc(N)nc2=O)[C@@H](O)[C@@H]1O [HDP-P-Ara-C, hexadecyloxypropyl cytarabine 5′-monophosphate]
rMC-1 cells
  CC50: 32 ± 2.2 µM
Rat eyes; after intravitreal injection
  depot formation in the vitreous: did not form a depot
Rat eyes; intravitreal 2-228 µg/eye, 2 weeks
  ocular toxicity: no ocular toxicity was found
Rat eyes; intravitreal, 2 weeks
  ERG and pathology: normal retinal physiology and histology
Rat eyes; week 2 after intravitreal injection, including highest dose 228 µg/eye
  vitreous drug level (HPLC): not detectable; also recorded: no drug was detectable; also recorded: no HDP-P-Ara-C was detected
ARPE-19 cells
  CC50: 52 ± 2.6 µM
[1]; day 7 and after
  drug in eluate samples: no drug was detected
[1]; within 3 days, flow rate 2 µl/min
  drug cleared from the chamber: 99%

## CCCCCCCCCCCCCCCCOCCCOP1(=O)OC[C@H]2O[C@@H](n3ccc(N)nc3=O)[C@@H](O)[C@@H]2O1 (stereo partly shown) [HDP-cP-Ara-C, hexadecyloxypropyl cytarabine 3′,5′-cyclic monophosphate]
rMC-1 cells
  CC50: 25 µM
ARPE-19 cells
  CC50: 50 µM
[1]; day 25 to day 36
  drug concentration in the eluate (low-level sustained release): about 16 ng/mL
[1]; dissolution chamber eluate
  day of peak release: 9 days and ~10 days
[1]; eluate analysis, medium printed as PBS, HBSS
  hydrolysis to HDP-P-Ara-C during the dissolution experiment: slow hydrolysis
[1]; end of experiment, flow rate 2 µL/min
  time still detectable in dissolution chamber eluate: ≥ 36 days
Rabbit eyes; 250 µg intravitreal, paraffin sections vs fellow eye
  TUNEL staining / retinal structure: No structural abnormality or apoptosis; also recorded: normal structures and negative apoptosis staining
Rabbit eyes; 250 µg or lower doses
  ERG examination: did not reveal drug toxicity
Rabbit eyes; 800 µg, 7-month study
  eyes with direct contact of drug depot with optic nerve or inferior retina (gliosis, discoloration): two eyes out of the four eyes
Rabbit eyes; 800 µg/eye
  dark adapted a-wave and flicker ERG amplitude vs fellow control eyes: significantly lower
Rabbit eyes; 25-800 µg/eye
  intraocular pressure, injected eyes vs fellow eyes: no significant difference
Rabbit eyes; 80 or 250 µg/eye, estimation of vitreal clearance
  estimated time drug depot would be visible: 3 months
Rabbit eyes; all doses (25-800 µg/eye)
  time drug depots visible: ≥ 2 months
Rabbit eyes; high dose 250 µg/eye
  Dark A amp (dark adapted ERG a-wave amplitude): −15.6
  Dark B amp: 83.19
  Flicker amp: 25.07
  Light A amp: −3.57
  Light B amp: 49.68
Rabbit eyes; highest dose 800 µg/eye
  Dark A amp (dark adapted ERG a-wave amplitude): −11.69
  Dark B amp: 95.35
  Flicker amp: 21.09
  Light A amp: −5.57
  Light B amp: 48.06
Rabbit eyes; highest dose (800 µg/eye)
  time drug depot still visible: ≥ 7 months
Rabbit eyes; intravitreal
  well tolerated dose: up to 250 µg/eye
Rabbit eyes; low dose 25 µg/eye
  Dark A amp (dark adapted ERG a-wave amplitude): −14.44
  Dark B amp: 88.14
  Flicker amp: 22.58
  Light A amp: −4.49
  Light B amp: 47.93
Rabbit eyes; moderate dose 80 µg/eye
  Dark B amp: 79.31
  Flicker amp: 23.51
  Light A amp: −5.64
  Light B amp: 42.83
Rabbit eyes; week 1, 25 µg
  AC cell (eyes affected/eyes): 0/4
  Fundus abnormality (eyes affected/eyes): 0/4
Rabbit eyes; week 1, 25 µg, haze from vitreous hemorrhage during injection
  Vit. Clarity (eyes affected/eyes): 1/4#
Rabbit eyes; week 1, 80 µg
  AC cell (eyes affected/eyes): 0/4
  Fundus abnormality (eyes affected/eyes): 0/4
  Vit. Clarity (eyes affected/eyes): 0/4
Rabbit eyes; week 1, 250 µg
  AC cell (eyes affected/eyes): 0/4
  Fundus abnormality (eyes affected/eyes): 0/4
  Vit. Clarity (eyes affected/eyes): 0/4
Rabbit eyes; week 1, 800 µg
  AC cell (eyes affected/eyes): 0/4
  Fundus abnormality (eyes affected/eyes): 0/4
  Vit. Clarity (eyes affected/eyes): 0/4
Rabbit eyes; week 8, 25 µg
  AC cell (eyes affected/eyes): 0/4
  Fundus abnormality (eyes affected/eyes): 0/4
  Vit. Clarity (eyes affected/eyes): 0/4
Rabbit eyes; week 8, 80 µg
  AC cell (eyes affected/eyes): 0/4
  Fundus abnormality (eyes affected/eyes): 0/4
  Vit. Clarity (eyes affected/eyes): 0/4
Rabbit eyes; week 8, 250 µg
  AC cell (eyes affected/eyes): 0/4
  Fundus abnormality (eyes affected/eyes): 0/4
  Vit. Clarity (eyes affected/eyes): 0/4
Rabbit eyes; week 28, 800 µg
  AC cell (eyes affected/eyes): 0/4
  Vit. Clarity (eyes affected/eyes): 0/4
Rabbit eyes; week 28, 800 µg, direct contact of depot with medullary ray or inferior retina
  Fundus abnormality (eyes affected/eyes): 2/4*
[2]
  water solubility: limited aqueous solubility; also recorded: minimally water soluble; also recorded: sparingly water soluble

## Nc1ccn([C@@H]2O[C@H](CO)[C@@H](O)[C@@H]2O)c(=O)n1 [cytarabine, 1-β-D-arabinofuranosylcytosine]
[3]
  intravitreal half-life: ≤ 12 h

## CCCCCCCCCCCCCCCCOCCCOP1(=O)OCC2OC(n3cc(F)c(=O)[nH]c3=O)CC2O1 (stereo not shown) [hexadecyloxypropyl 5-fluoro-2'-deoxyuridine cyclic 3′,5′-monophosphate]
Experimental PVR
  effect on experimental PVR: inhibited experimental PVR

## CCCCCCCCCCCCCCCCOCCCOP1(=O)CO[C@@H](Cn2ccc(N)nc2=O)CO1 (stereo partly shown) [hexadecyloxypropyl cyclic cidofovir]
Herpes simplex virus
  duration of herpes simplex virus suppression: up to 4 months
